Laboratory results reported in article PMC7400437, “Synthesis and Evaluation of the Antibacterial Activities of 13-Substituted Berberine Derivatives” (Antibiotics, 2020).
Where two headings read alike, the source gives them in different places.

Key:
A. baumannii = experiment: MIC, antimicrobial activity assay; assay type: cell-based, Acinetobacter baumannii (CIP 110431); conditions: Acinetobacter baumannii; Table 4, Gram-negative
C. rodentium = experiment: MIC, antimicrobial activity assay; assay type: cell-based, Citrobacter rodentium (ATCC 51116); conditions: Citrobacter rodentium; Table 4, Gram-negative
K. pneumonia = experiment: MIC, antimicrobial activity assay; assay type: cell-based, Klebsiella pneumoniae (DSMZ 26371); conditions: Klebsiella pneumoniae; Table 4, Gram-negative
S. pyogenes = experiment: MIC, antimicrobial activity assay; assay type: cell-based, Streptococcus pyogenes (DSM 20565); conditions: Streptococcus pyogenes; Table 4, Gram-positive; anaerobic
[1] = test system: BEAS (human airway epithelial cells); experiment: Cytotoxic assay on human cells (resazurin); assay type: cell-based; conditions: Epithelial cell, 48 h, means +/−SD, read-out: Inhibitory Concentration 50 (IC50) on cell viability, BEAS
Experimental: (§1) The toxicity of berberine and berberine’s derivatives on human cells was evaluated using resazurin assay as previously described. Human cells used were BEAS (ATCC CRL-9609), Caco2 (ATCC HTB-37) and HepG2 (ATCC HB-8065) corresponding respectively to human airway epithelial cells, intestinal epithelial cells and liver cells. Cells were cultured in Dulbecco’s modified essential medium (DMEM) supplemented with 10% fetal bovine serum (FBS), 1% L-glutamine and 1% antibiotics (Thermo Fisher Scientific, Illkirch-Graffenstaden, France). Cells were routinely grown on 25 cm^2 flasks and maintained in a 5% CO2 incubator at 37 °C. For toxicity assay, cells were detached using trypsin–EDTA solution (Thermo Fisher Scientific), counted using Mallasez counting chamber and seeded into 96-well cell culture plates (Greiner bio-One, Dominique Dutscher, Brumath, France) at approximately 10,000 cells per well. The cells were left to grow for 48–72 h at 37 °C in a 5% CO2 incubator until they reached confluence. Media from wells was then aspirated and cells were treated with 100 µL of culture media containing increasing concentrations of berberine or berberine’s derivatives obtained by serial dilution (from 0 to 50 µM, 1:2 dilution), DMSO (0.5% DMSO final concentration) was used as negative control. After 48 h incubation at 37 °C in a 5% CO2 incubator, cell viability was evaluated using resazurin based in vitro toxicity assay kit (Sigma-Aldrich) following manufacturer’s instructions. Briefly, cell wells were emptied, and cells were treated with 100 µL of resazurin diluted 1:10 in sterile PBS containing calcium and magnesium (PBS^++, pH 7.4). After 4 h incubation at 37 °C, fluorescence intensity (excitation wavelength of 530 nm/emission wavelength of 590 nm) was measured using Synergy Mx microplate reader (Biotek). The fluorescence values were normalized by the controls (DMSO treated cells) and expressed as percent viability. The IC50 values of berberine and berberine’s derivatives on cell viability (i.e., the concentration of derivative causing a reduction of 50% of the cell viability) were calculated using GraphPad® Prism 7 software (San Diego, CA, USA). t-Test and two ways ANOVA analyses were used to address the significant differences between mean values with significance set at p < 0.05.

[2] = test system: Caco2 (human intestinal epithelial cells); experiment: Cytotoxic assay on human cells (resazurin); assay type: cell-based; conditions: for IC50: Homo sapiens, Caco-2, 48 h, read-out: Inhibitory Concentration 50 (IC50) on cell viability, Caco2; for therapeutic index Caco2: IC50 on Caco2 divided by MIC on S. aureus
Experimental: as §1

[3] = test system: HepG2 (human liver cells); experiment: Cytotoxic assay on human cells (resazurin); assay type: cell-based; conditions: HepG2, 48 h, read-out: Inhibitory Concentration 50 (IC50) on cell viability, HEPG2
Experimental: as §1

B. cereus = experiment: MIC, antimicrobial activity assay; assay type: cell-based; conditions: Bacillus cereus; Table 4, Gram-positive
A. gandavensis = experiment: MIC, antimicrobial activity assay; assay type: cell-based, Arthrobacter gandavensis (DSM 2447); conditions: Arthrobacter gandavensis; Table 4, Gram-positive
P. aeruginosa = experiment: MIC, antimicrobial activity assay; assay type: cell-based, Pseudomonas aeruginosa (ATCC 9027); conditions: Pseudomonas aeruginosa
[4] = test system: E. faecalis (Vancomycin-resistant); experiment: MIC, antimicrobial activity assay; assay type: cell-based, vancomycin-resistant Enterococcus faecalis (DSMZ 13591); conditions: Enterococcus faecalis, read-out: MIC E. faecalis (Vancomycin-resistant)
[5] = test system: P. aeruginosa (Quinolone-resistant); experiment: MIC, antimicrobial activity assay; assay type: cell-based; conditions: Pseudomonas aeruginosa, read-out: MIC P. aeruginosa (Quinolone-resistant)
M. smegmatis = experiment: microbe, parasite or virus in culture; assay type: cell-based, Mycobacterium smegmatis (mc2155, ATCC 700084); conditions: Mycolicibacterium smegmatis, 72 h, read-out: Minimal Inhibitory Concentration (MIC) M. smegmatis
C. albicans = experiment: MIC, antifungal activity assay; assay type: cell-based, Candida albicans (DSM 10697); conditions: Candida albicans; Table 1 first screening; 35 °C, 24 h; read-out: Minimal Inhibitory Concentration (MIC) C. albicans
C. perfringens = experiment: microbe, parasite or virus in culture; assay type: cell-based, Clostridium perfringens (ATCC 13124); conditions: Clostridium perfringens, read-out: MIC C. perfringens
S. enterica = experiment: MIC, antimicrobial activity assay; assay type: cell-based, Salmonella enterica (CIP 80.39); conditions: Salmonella enterica; Table 4, Gram-negative
L. lactis = experiment: MIC, antimicrobial activity assay; assay type: cell-based, Lactococcus lactis (DSM 20481); conditions: Lactococcus lactis; Table 4, Gram-positive
[6] = test system: B. subtilis (Nisin-resistant); experiment: MIC, antimicrobial activity assay; assay type: cell-based, nisin-resistant B. subtilis (DSMZ 347); conditions: Bacillus subtilis, read-out: MIC B. subtilis (Nisin-resistant)
V. diabolicus = experiment: MIC, antimicrobial activity assay; assay type: cell-based; conditions: Vibrio diabolicus; Table 4, Gram-negative
S. aureus = experiment: MIC, antimicrobial activity assay; assay type: cell-based, Staphylococcus aureus (ATCC 6538P); conditions: Staphylococcus aureus
V. alginolyticus = experiment: MIC, antimicrobial activity assay; assay type: cell-based, Vibrio alginolyticus (DSM 2171); conditions: Vibrio alginolyticus; Table 4, Gram-negative
C. farmer = experiment: MIC, antimicrobial activity assay; assay type: cell-based, Citrobacter farmeri (ATCC 51633); conditions: Citrobacter farmeri; Table 4, Gram-negative
S. flexneri = experiment: MIC, antimicrobial activity assay; assay type: cell-based, Shigella flexneri (ATCC 12022); conditions: Shigella flexneri; Table 4, Gram-negative
[7] = test system: S.aureus (Methicillin-resistant); experiment: MIC, antimicrobial activity assay; assay type: cell-based; conditions: Staphylococcus aureus, read-out: MIC S.aureus (Methicillin-resistant)
E. coli = experiment: MIC, antimicrobial activity assay; assay type: cell-based, Escherichia coli (ATCC 8739); conditions: Escherichia coli
H. pylori = experiment: MIC, antimicrobial activity assay; assay type: cell-based, Helicobacter pylori (ATCC 43504); conditions: Helicobacter pylori; Table 4, Gram-negative; microaerobic
C. difficile = experiment: MIC, antimicrobial activity assay; assay type: cell-based, Clostridium difficile (DSM 1296); conditions: Clostridioides difficile; Table 4, Gram-positive; anaerobic
B. subtilis = experiment: MIC, antimicrobial activity assay; assay type: cell-based, Bacillus subtilis (ATCC 6633); conditions: Bacillus subtilis
[8] = Table 1 first screening, read-out: Minimal Inhibitory Concentration (MIC) P. aeruginosa
[9] = Table 4, Gram-negative, read-out: MIC P. aeruginosa
[10] = Table 1 first screening, read-out: Minimal Inhibitory Concentration (MIC) S. aureus
[11] = Table 4, Gram-positive, read-out: MIC S. aureus
[12] = Table 1 first screening, read-out: Minimal Inhibitory Concentration (MIC) E. coli
[13] = Table 4, Gram-negative, read-out: MIC E. coli
[14] = Table 1 first screening, read-out: Minimal Inhibitory Concentration (MIC) B. subtilis
[15] = Table 4, Gram-positive, read-out: MIC B. subtilis

SMILES	MIC (A. baumannii) [µM]	MIC (C. rodentium) [µM]	MIC (K. pneumonia) [µM]	MIC (S. pyogenes) [µM]	IC50 [1] [µM]	IC50 [2] [µM]	therapeutic index Caco2 [2]	IC50 [3] [µM]	MIC (B. cereus) [µM]	MIC (A. gandavensis) [µM]	MIC (P. aeruginosa; [8]) [µM]	MIC (P. aeruginosa; [9]) [µM]	MIC [4] [µM]	MIC [5] [µM]	MIC (M. smegmatis) [µM]	MIC (C. albicans) [µM]	MIC (C. perfringens) [µM]	MIC (S. enterica) [µM]	MIC (L. lactis) [µM]	MIC [6] [µM]	also measured
COc1ccc2c(CC(=O)c3ccc(OC(=O)c4ccccc4)cc3OC(=O)c3ccccc3)c3[n+](cc2c1OC)CCc1cc2c(cc1-3)OCO2 [Compound 17, 4-[2-(Berberin-13-yl)acetyl]-3-(benzoyloxy)phenyl Benzoate]	> 100	> 100	> 100	25	42.4 ± 9.8	> 50	8.54	> 50	25	12.5	> 100	> 100	25	> 100	100	25	50	> 100	3.12 to 6.25	12.5 to 25	MIC (V. diabolicus): > 100 µM; MIC (S. aureus; [10]): 6.25 to 12.5 µM; MIC (S. aureus; [11]): 6.25 µM; MIC (V. alginolyticus): 1.5 to 3.12 µM; MIC (C. farmer): > 100 µM; MIC (S. flexneri): > 100 µM; MIC [7]: 25 µM; MIC (E. coli; [12]): > 100 µM; MIC (E. coli; [13]): > 100 µM; MIC (H. pylori): 6.25 to 12.5 µM; MIC (C. difficile): 100 µM; MIC (B. subtilis; [14]): 12.5 µM; MIC (B. subtilis; [15]): 12.5 µM
COc1ccc2c(Cc3ccc(/C=C/C(=O)NCCc4ccc(S(N)(=O)=O)cc4)cc3)c3[n+](cc2c1OC)CCc1cc2c(cc1-3)OCO2 [Compound 23, (2E)-3-{4-[(Berberin-13-yl)methyl]phenyl}-N-[2-(4-sulfamoylphenyl)ethyl]prop-2-enamide]	> 100	> 100	> 100	6.25	> 50	> 50	12.40	> 50	12.5	50	> 100	> 100	100	> 100	25	100	50	> 100	6.25	25	MIC (V. diabolicus): > 100 µM; MIC (S. aureus; [10]): 6.25 µM; MIC (S. aureus; [11]): 6.25 µM; MIC (V. alginolyticus): 6.25 µM; MIC (C. farmer): > 100 µM; MIC (S. flexneri): > 100 µM; MIC [7]: 12.5 µM; MIC (E. coli; [12]): > 100 µM; MIC (E. coli; [13]): > 100 µM; MIC (H. pylori): 6.25 µM; MIC (C. difficile): 50 µM; MIC (B. subtilis; [14]): 25 µM; MIC (B. subtilis; [15]): 25 µM
COc1ccc2c(=O)cc(-c3ccc(Cc4c5[n+](cc6c(OC)c(OC)ccc46)CCc4cc6c(cc4-5)OCO6)cc3)oc2c1 [Compound 26, 2-{4-[(Berberin-13-yl)methyl]phenyl}-7-methoxy-4H-chromen-4-one]	> 100	> 100	> 100	25	> 50	> 50	20.24	> 50	50	12.5	> 100	> 100	> 100	> 100	50	100	> 100	> 100	6.25 to 12.5	50	MIC (V. diabolicus): > 100 µM; MIC (S. aureus; [10]): 12.5 µM; MIC (S. aureus; [11]): 12.5 µM; MIC (V. alginolyticus): 50 µM; MIC (C. farmer): > 100 µM; MIC (S. flexneri): > 100 µM; MIC [7]: 25 µM; MIC (E. coli; [12]): > 100 µM; MIC (E. coli; [13]): > 100 µM; MIC (H. pylori): 50 µM; MIC (C. difficile): > 100 µM; MIC (B. subtilis; [14]): 50 µM; MIC (B. subtilis; [15]): 50 µM
